Test results: publication PMC12169609, “Efficient Crystallization of Apo Sirt2 for Small-Molecule Soaking and Structural Analysis of Ligand Interactions” (Journal of Medicinal Chemistry, 2025)

Key:
[1] = tested on: Sirt2; settings: published Sirt2 inhibitors; no assay or reference printed at the place; cited from earlier work
[2] = molecular target: T1, Sirt2_56–356 (Homo sapiens, UniProt Q8IXJ6); assay: Fluorescence polarization assay (FPA), displacement of SirReal-TAMRA probe; assay type: binding; settings: for FP-Assay Inhibition (%) at 125 µM / inhibition at 125 µM: 125 µM compound; for FP-Assay Inhibition (%) at 500 µM / inhibition at 500 µM: 500 µM compound; for FP-Assay Inhibition (%) at 2000 µM / inhibition at 2000 µM: 2000 µM compound; for IC50: 200 nM Sirt2, 40 nM SirReal-TAMRA, 5% DMSO; for inhibition at 125 µM: read-out: FP-Assay Inhibition (%) at 125 µM; for inhibition at 500 µM: read-out: FP-Assay Inhibition (%) at 500 µM; for inhibition at 2000 µM: read-out: FP-Assay Inhibition (%) at 2000 µM
T1 construct: human strep-tagged Sirt2_56–356 was expressed and purified; strep-tag; made in house
T1 sequence (Q8IXJ6 56-356): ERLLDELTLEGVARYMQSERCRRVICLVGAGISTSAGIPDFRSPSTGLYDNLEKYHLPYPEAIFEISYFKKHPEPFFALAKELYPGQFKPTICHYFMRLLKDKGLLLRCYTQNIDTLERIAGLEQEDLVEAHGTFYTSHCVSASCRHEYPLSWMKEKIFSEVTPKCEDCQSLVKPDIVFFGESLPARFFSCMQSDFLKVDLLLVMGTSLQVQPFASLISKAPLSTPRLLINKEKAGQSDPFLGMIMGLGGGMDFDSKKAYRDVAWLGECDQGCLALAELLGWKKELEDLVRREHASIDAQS
Experimental: Blank controls contained 19 μL of assay buffer and 1 μL DMSO. Negative controls (P neg) used 1 μL Mz242 (20 μM final concentration), while positive controls (Ppos) replaced the inhibitor with 1 μL DMSO. […] Fluorescence intensities were measured with an EnVision plate reader (PerkinElmer, optical module – BODIPY TMR FP, excitation filter – FP 531 nm, emission filter 1 – FP p-pol 595 nm, emission filter 2 – FP s-pol 595 nm). Inhibition was calculated using the equation reported below (P I, P neg, and P pos are FP values of samples, […], respectively). I=100×(1−(PI−Pneg/Ppos−Pneg))%

[3] = molecular target: T1, Sirt2_56–356; assay: Fluorescence thermal shift assay (DSF); assay type: binding; settings: 6.0 μM Sirt2; for FTS-Assay Thermal shift at 1000 µM / ΔTm at 1000 µM: 1000 µM compound; for ΔTm at 1000 µM: read-out: FTS-Assay Thermal shift at 1000 µM
Experimental: Fluorescence thermal shift assays were performed in white 96-well plates (Hard-Shell PCR Plates, BioRad, USA) with a total volume of 20 μL and a final DMSO concentration of 5% (v/v), following a published protocol. ,
Melting temperatures were determined using GraphPad Prism, following a published procedure.

[4] = Precipitation observed in the FP assay IC50 determination; assay type: physicochemical; settings: FP assay buffer, 5% DMSO
Description: Figure S3: (A) Superimposition of Sirt2 apo (salmon, PDB 9FDR) with Sirt2-Mz242 (Sirt2 = yellow-orange, Mz242 = yellow, PDB 8OWZ).4 All amino acids that are involved in the formation of the selectivity pocket align very well. However, Phe96 and Arg97 from the cofactor binding loop show a different orientation, resulting from the presence or absence of Mz242. (B) Superimposition of Sirt2-KT9 (Sirt2 = wheat, KT9 = firebrick, PDB 9FDX) with NAD+ (gray) from PDB 4RMG. In the presented KT9 orientation, the close distance of the amide C=O of KT9 and the ribose moiety of NAD+ (highlighted as black circle) would result in steric clashes that prevent simultaneous binding.
Figure S4: IC50 curves of compounds 1-3 in a previously reported Sirt2 binding assay based on fluorescence polarization.5 At concentrations exceeding 1000 µM, 1 started to precipitate, thus limiting the maximum inhibition to 70%. […]

| SMILES | FP-Assay Inhibition (%) at 125 µM [2] | FP-Assay Inhibition (%) at 500 µM [2] | FP-Assay Inhibition (%) at 2000 µM [2] | FTS-Assay Thermal shift at 1000 µM [3] | FTS-Assay Thermal shift at 2000 µM ([3]; 2000 µM compound) | other results |
| --- | --- | --- | --- | --- | --- | --- |
| COCCn1cc(COc2cccc(Cc3cnc(NC(=O)CSc4nc(C)cc(C)n4)s3)c2)nn1 [Mz242] |  |  |  |  |  | IC50 [1]: 0.12 µM |
| CN(C(=O)c1cccs1)C1CC2CCC1C2 (stereo not shown) [No. 5] | -7.4 ± 8.3% | 10.3 ± 6.0% | 43.8 ± 10.1% | 0.5 °C | 0.7 °C |  |
| CC1Sc2ccccc2NC(=O)C1C (stereo not shown) [No. 6] | 20.2 ± 2.9% | 59.9 ± 7.9% | 101.0 ± 4.7% | 1.5 °C |  |  |
| C#Cc1ccc(-c2cnco2)cc1 [No. 8] | 19.1 ± 4.6% | 61.2 ± 3.3% |  | 0.9 °C | 0.0 °C |  |
| Nc1ccccc1-c1cccs1 [No. 12] | 33.2 ± 10.3% | 66.4 ± 3.2% | 104.2 ± 3.2% |  | 0.0 °C |  |
| CNCc1ccc(N2CCOCC2)s1 [No. 13] | 19.9 ± 3.1% | 49.3 ± 4.1% | 95.1 ± 3.5% |  |  |  |
| c1ccc2c(CN3CCOCC3)csc2c1 [No. 14] | 24.3 ± 3.5% | 42.5 ± 2.9% | 91.9 ± 13.9% | 1.3 °C | 0.7 °C |  |
| CC1(C)CC(=O)c2c(SCCO)sc(C#N)c2C1 [No. 19] | 8.2 ± 4.9% | 40.9 ± 5.6% | 91.5 ± 1.7% |  |  |  |
| Nc1nc(-c2ccc(F)c(F)c2)cs1 [No. 20] | -0.9 ± 6.3% | 38.8 ± 4.6% | 91.3 ± 3.2% |  | 0.0 °C |  |
| NC(=S)c1ccc(OCC(F)(F)F)nc1 [compound 1] |  |  |  |  |  | IC50 [2]: 286 ± 10 µM; inhibition at 125 µM [2]: 26.5 ± 5.8%; inhibition at 500 µM [2]: 55.4 ± 4.3%; inhibition at 2000 µM [2]: 74.2 ± 3.1%; ΔTm at 1000 µM [3]: 0.3 °C; ΔTm at 2000 µM ([3]; 2000 µM compound, read-out: FTS-Assay Thermal shift at 2000 µM): 0.6 °C; concentration above which compound started to precipitate [4]: exceeding 1000 µM |
| O=C(NCc1ccccn1)c1cccc(Cl)c1 [compound 3] |  |  |  |  |  | IC50 [2]: 565 ± 95 µM; inhibition at 125 µM [2]: 15.1 ± 7.7%; inhibition at 500 µM [2]: 46.9 ± 9.3%; inhibition at 2000 µM [2]: 94.8 ± 3.4%; ΔTm at 1000 µM [3]: 0.5 °C |

Further lines, with some results ahead:

| FP-Assay Inhibition (%) at 125 µM [2] | FP-Assay Inhibition (%) at 500 µM [2] | FP-Assay Inhibition (%) at 2000 µM [2] | FTS-Assay Thermal shift at 1000 µM [3] | FTS-Assay Thermal shift at 2000 µM ([3]; 2000 µM compound) | SMILES | other results |
| --- | --- | --- | --- | --- | --- | --- |
| 32.8 ± 4.3% | 61.1 ± 6.5% | 78.5 ± 7.5% | 1.1 °C | 0.1 °C | CC(=O)Nc1ccc2c(c1)CCC2 [No. 4] |  |
| 11.5 ± 5.5% | 46.9 ± 4.3% | 76.2 ± 1.8% | 0.8 °C | 0.5 °C | COC(=O)c1sccc1-n1cccc1 [No. 7] |  |
| 19.3 ± 10.5% | 53.9 ± 8.2% | 90.3 ± 14.7% | 0.7 °C |  | N#CCOc1cc(Cl)cc(Cl)c1 [No. 10] |  |
| 6.3 ± 7.4% | 36.2 ± 6.5% | 87.3 ± 6.8% | 0.7 °C | 0.2 °C | Clc1ccc2ncccc2c1 [No. 15] |  |
| 23.1 ± 3.9% | 50.5 ± 5.4% |  | 0.5 °C | 0.4 °C | CCOC(=O)Cc1ccc(OC)cc1 [No. 16] |  |
| 24.7 ± 4.0% | 63.8 ± 2.4% | 99.7 ± 4.6% | 0.9 °C | 0.9 °C | CCOC(=O)Cc1cccc(Cl)c1 [No. 17] |  |
| 11.3 ± 3.2% | 41.9 ± 7.0% | 90.8 ± 2.8% | 1.3 °C | 0.1 °C | Cc1ccc(=O)n(Cc2ccc(Cl)cc2)n1 [No. 18] |  |
| 41.8 ± 5.9% | 91.4 ± 2.5% | 97.0 ± 6.2% | 0.9 °C |  | CCOC(=O)c1cccc(-c2nccs2)c1 [No. 21] |  |
| 57.6 ± 7.3% | 74.2 ± 4.2% | 56.5 ± 2.8% | 1.9 °C | 1.6 °C | CC(=O)c1c(O)cccc1OCCC(C)C [No. 22] |  |
